Source: EP4624497A1, “PHOSPHOEN[…] PROBE, PREPARATION METHOD THEREFOR AND APPLICATION THEREOF” (priority 2022, dated 2024)

How the values were obtained:
Experiment in all cases: phosphoenolpyruvate titration of purified optical probe (fluorescence ratio)
Format in all cases: binding
Settings in all cases: phosphoenolpyruvate 0 to 10 mM, purified probe treated 10 minutes, ex 420/485 nm, em 528 nm
[1] = target: T1, Thermus thermophilus TtPFK optical probe 254/255-TtPFK-I253G/Q254L/R255L/G256F-cpYFP-Y1P (Thermus thermophilus, UniProt P21777, form not given/G256F/I253G/Q254L/R255L)
T1 construct: the numbering corresponds to the full length of the phosphoenolpyruvate-sensitive polypeptide; His-tag; made in house; host or cells: E. coli BL21 (DE3)
Procedure: (§1) • 1. The expression vectors (for example, a phosphoenolpyruvate optical probe expression vector based on pCDF.) were transformed into BL21 (DE3) cells, incubated inverted overnight, and the clones were picked from the plates into 250 mL Erlenmeyer flasks, placed in a shaker at 37 °C and incubated at 220 rpm to OD=0.4-0.8, then 1/1000 (V/V) of IPTG (1 M) was added to induce expression at 18 °C for 24-36 hours. • 2. Upon completion of inducible expression, cells were harvested by centrifugation at 4000 rpm for 30 min, resuspended in 50 mM phosphate buffer and disrupted ultrasonically until the broth were clear, centrifuged at 9600 rpm at 4 °C for 20 min. • 3. The centrifuged supernatant was used to obtain protein by purification through a self-packed nickel column affinity chromatography column, and the protein obtained after nickel column affinity chromatography was further used to obtain protein dissolved in 100 mM HEPES buffer (pH 7.4). • 4. After purified proteins were subjected to SDS-PAGE, probes were diluted to a protein solution having a final concentration of 0.2-5 µM using assay buffer (100 mm HEPES, 100 mM NaCl, pH 7.4). Phosphoenolpyruvate was formulated as a stock solution at a final concentration of 50 mM with the assay buffer (100 mM HEPES, 100 mM NaCl, pH 7.4). • 5. 100 µl 1 µM of protein solution was taken, incubated at 37 °C for 10 min, phosphoenolpyruvate was added for titration, and the fluorescence intensity of 528 nm emission after 420 nm and 485 nm fluorescence excitation of the protein was measured. The fluorescence excitation and emission determination of the samples were done using a multifunctional fluorescence microplate reader. • 6. 100 µl 1 µM of protein solution was taken, incubated at 37 °C for 10 min, and phosphoenolpyruvate was added to determine the absorption and fluorescence spectra of the proteins. Determination of the absorption and fluorescence spectra of the samples was done by spectrophotometer and spectrofluorometer.
(§2) The recombinant plasmids of the mutation library were transformed into BL21 (DE3) to induce expression, and the purified probe protein was subjected to phosphoenolpyruvate-responsive screening, dividing the detection signal of the fusion fluorescent protein containing 2 mM phosphoenolpyruvate by that of the fusion fluorescent protein without phosphoenolpyruvate. […]

[2] = target: T2, Thermus thermophilus TtPFK optical probe 254/255-TtPFK-I253K/Q254L/R255L/G256F-cpYFP-Y1S, SEQ ID NO: 12 (Thermus thermophilus, UniProt P21777, form not given/G256F/I253K/Q254L/R255L)
T2 construct: the numbering corresponds to the full length of the phosphoenolpyruvate-sensitive polypeptide; His-tag; made in house; host or cells: E. coli BL21 (DE3)
Procedure: as §1, §2

[3] = target: T3, Thermus thermophilus TtPFK optical probe 254/255-TtPFK-cpYFP variant, TtPFK I253N/Q254L/R255L/G256F, cpYFP Y1S/N246F (Thermus thermophilus, UniProt P21777, form not given/G256F/I253N/Q254L/R255L)
T3 construct: the numbering corresponds to the full length of the phosphoenolpyruvate-sensitive polypeptide; His-tag; made in house; host or cells: E. coli BL21 (DE3)
Procedure: as §1, §2

[4] = target: T4, Thermus thermophilus TtPFK optical probe 254/255-TtPFK-cpYFP variant, TtPFK I253V/Q254A/R255F/G256Y, cpYFP N246F (Thermus thermophilus, UniProt P21777, form not given/G256Y/I253V/Q254A/R255F)
T4 construct: the numbering corresponds to the full length of the phosphoenolpyruvate-sensitive polypeptide; His-tag; made in house; host or cells: E. coli BL21 (DE3)
Procedure: as §1, §2

[5] = target: T5, Thermus thermophilus TtPFK optical probe 254/255-TtPFK-cpYFP variant, TtPFK I253V/Q254L/R255F/G256Y, cpYFP Y1H/N246F (Thermus thermophilus, UniProt P21777, form not given/G256Y/I253V/Q254L/R255F)
T5 construct: His-tag; made in house; host or cells: E. coli BL21 (DE3)
Procedure: as §1, §2

[6] = target: T6, Thermus thermophilus TtPFK optical probe 254/255-TtPFK-cpYFP variant, TtPFK I253Y/Q254I (Thermus thermophilus, UniProt P21777, form not given/I253Y/Q254I/Q254N)
T6 construct: the numbering corresponds to the full length of the phosphoenolpyruvate-sensitive polypeptide; His-tag; made in house; host or cells: E. coli BL21 (DE3)
Procedure: as §1, §2

[7] = target: T7, Thermus thermophilus TtPFK optical probe 254/255-TtPFK-cpYFP variant, TtPFK Q254L/R255L/G256H, cpYFP Y1S (Thermus thermophilus, UniProt P21777, form not given/G256H/Q254L/R255L)
T7 construct: the numbering corresponds to the full length of the phosphoenolpyruvate-sensitive polypeptide; His-tag; made in house; host or cells: E. coli BL21 (DE3)
Procedure: as §1, §2

[8] = target: T8, Thermus thermophilus TtPFK optical probe 254/255-TtPFK-cpYFP variant, TtPFK Q254V/R255I/G256H, cpYFP N246W (Thermus thermophilus, UniProt P21777, form not given/G256H/Q254V/R255I)
T8 construct: the numbering corresponds to the full length of the phosphoenolpyruvate-sensitive polypeptide; His-tag; made in house; host or cells: E. coli BL21 (DE3)
Procedure: as §1, §2

[9] = target: T9, Thermus thermophilus TtPFK optical probe 254/256-TtPFK-I253Q/Q254L/G256V/G257L-cpYFP-Y1T/N246F (Thermus thermophilus, UniProt P21777, form not given/G256V/G257L/I253Q/Q254L)
T9 construct: the numbering corresponds to the full length of the phosphoenolpyruvate-sensitive polypeptide; His-tag; made in house; host or cells: E. coli BL21 (DE3)
Procedure: as §1, §2

[10] = target: T10, Thermus thermophilus TtPFK optical probe 254/256-TtPFK-cpYFP variant, TtPFK I253D/Q254L/G256V/G257L, cpYFP Y1T/N246F (Thermus thermophilus, UniProt P21777, form not given/G256V/G257L/I253D/Q254L)
T10 construct: the numbering corresponds to the full length of the phosphoenolpyruvate-sensitive polypeptide; His-tag; made in house; host or cells: E. coli BL21 (DE3)
Procedure: as §1, §2

[11] = target: T11, Thermus thermophilus TtPFK optical probe 254/256-TtPFK-cpYFP variant, TtPFK I253S/Q254L/G256V/G257L, cpYFP Y1T/N246F (Thermus thermophilus, UniProt P21777, form not given/G256V/G257L/I253S/Q254L)
T11 construct: the numbering corresponds to the full length of the phosphoenolpyruvate-sensitive polypeptide; His-tag; made in house; host or cells: E. coli BL21 (DE3)
Procedure: as §1, §2

[12] = target: T12, Thermus thermophilus phosphofructokinase TtPFK (SEQ ID NO: 1) optical probe 254/255-TtPFK-cpYFP, no mutation, SEQ ID NO: 10 (Thermus thermophilus, UniProt P21777)
T12 construct: His-tag; made in house; host or cells: E. coli BL21 (DE3)
Procedure: as §1, §2

Question: `C=C(OP(=O)(O)O)C(=O)O` [phosphoenolpyruvate, Phosphoenolpyruvate] was tested. Which Kd [1] did it give?
Answer: 30.9 µM

Question: What about the Kd [2] of the same compound?
Answer: 17.5 µM

Question: What about the Kd [3] of the same compound?
Answer: 9.66 µM

Question: What about the Kd [4] of the same compound?
Answer: 32 µM

Question: What about the Kd [5] of the same compound?
Answer: 81.7 µM

Question: What about the Kd [6] of the same compound?
Answer: 1.55 µM

Question: And the Kd [7]?
Answer: 8.5 µM

Question: And the Kd [8]?
Answer: 11.4 µM

Question: And the Kd [9]?
Answer: 13.1 µM

Question: And the Kd [10]?
Answer: 13.4 µM

Question: What about the Kd [11] of the same compound?
Answer: 8.93 µM

Question: And the Kd [12]?
Answer: 0.8 µM
